The record followed here is ChEMBL document CHEMBL1201862, “PubChem BioAssay data set” (2004).

Molecules are shown by their SMILES.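 Where inhibition never reached the appropriate level, the endpoint shown equals the highest concentration tested. Otherwise, values were interpolated linearly from a five-concentration, 48-hour dose response in 96-well plates. At the GI50, growth is halved.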 Activity calls are given as the source filed them. Rule as the data show it: active = GI50 up to about 1.1 µM and inactive = higher. Where only a bound is given, the exact number is not on record here.

Some test systems named below: UACC-62; RPMI-8226; SF-295; SK-MEL-5; EKVX; MDA-N; SK-MEL-2; HT-29; UACC-257; CAKI-1; UO-31; SF-268; HL-60; T47D; KM12; HCT-116; HCT-15; SNB-75; OVCAR-4.
What all share (assay): NCI-60 cell line screen, 48 h

Take `O=C(NC1(C(=O)O)CCCC1)c1ccccc1`: the GI50 in the assay with UACC-62, in the assay with RPMI-8226, in the assay with SF-295, in the assay on SK-MEL-5, with EKVX and in the assay with MDA-N was > 100 µM (inactive) throughout. Besides, the GI50 with SK-MEL-2, with HT-29, in the assay with UACC-257, in the assay on CAKI-1, with UO-31 and in the assay with SF-268 was > 100 µM (inactive) in each case. Moreover, the GI50 was > 100 µM (inactive) in the assay on HL-60; > 100 µM (inactive) in the assay with T47D; > 100 µM (inactive) in the assay on KM12; > 100 µM (inactive) with HCT-116; over 100 µM in the assay with HCT-15.

`Cc1cc2c(nn1)CCc1c-2no[n+]1[O-]`: the GI50 in the assay with UACC-62, in the assay with RPMI-8226, in the assay on SF-295, with SK-MEL-5, in the assay on SNB-75 and in the assay with EKVX was > 100 µM (inactive) throughout. Moreover, the GI50 in the assay with MDA-N was > 100 µM (inactive); with SK-MEL-2 it was 50.1 µM (inactive); in the assay on HT-29 it was > 100 µM (inactive); in the assay with UACC-257 it was > 100 µM (inactive); with CAKI-1, > 100 µM (inactive); in the assay with UO-31, > 100 µM (inactive). The GI50 was > 100 µM (inactive) in the assay with SF-268; > 100 µM (inactive) in the assay on OVCAR-4; > 100 µM (inactive) with T47D; > 100 µM (inactive) in the assay with KM12; > 100 µM (inactive) in the assay with HCT-116; over 100 µM with HCT-15.

Take `COc1cccc2c1CCc1c(-c3ccc(F)cc3)cc(-c3ccc4ccccc4n3)nc1-2`: the GI50 in the assay with UACC-62, in the assay on RPMI-8226, in the assay on SF-295, with SK-MEL-5, in the assay with SNB-75 and in the assay on EKVX was > 100 µM (inactive) in each case. Further, the GI50 with MDA-N, with SK-MEL-2, with HT-29, with UACC-257, in the assay with CAKI-1 and with UO-31 was > 100 µM (inactive) in each case. Moreover, the GI50 is > 100 µM (inactive) in the assay on SF-268; > 100 µM (inactive) in the assay on OVCAR-4; > 100 µM (inactive) with T47D; > 100 µM (inactive) with KM12; > 100 µM (inactive) in the assay with HCT-116; over 100 µM in the assay with HCT-15.

As to `CC(C)(NO)/C(=N\O)c1ccco1`, the GI50 in the assay with UACC-62, in the assay with RPMI-8226, in the assay on SF-295, in the assay on SK-MEL-5, in the assay with EKVX and in the assay with MDA-N was > 100 µM (inactive) each time. Besides, the GI50 with SK-MEL-2, in the assay on HT-29, in the assay on UACC-257, in the assay on CAKI-1, in the assay with UO-31 and with SF-268 was > 100 µM (inactive) in each case. The GI50 in the assay with OVCAR-4 is > 100 µM (inactive); with T47D, > 100 µM (inactive); with KM12, > 100 µM (inactive); with HCT-116 it was > 100 µM (inactive); with HCT-15, over 100 µM.

With `COC(=O)C(/C(=N/NC(N)=O)C(=O)Nc1ccc(C)cc1)c1nc2ccc([N+](=O)[O-])cc2nc1O` (centres undefined), the GI50 in the assay with UACC-62 is > 100 µM (inactive); in the assay on RPMI-8226, > 100 µM (inactive); with SF-295, > 100 µM (inactive); with SK-MEL-5, 57.9 µM (inactive); in the assay on SNB-75, > 100 µM (inactive); with EKVX, 56.1 µM (inactive). Further, the GI50 with MDA-N is > 100 µM (inactive); with SK-MEL-2, > 100 µM (inactive); with HT-29, > 100 µM (inactive); in the assay with UACC-257, > 10 µM (inactive); with CAKI-1 it was > 100 µM (inactive); in the assay on SF-268, > 100 µM (inactive). In addition, the GI50 was 50.2 µM (inactive) in the assay on OVCAR-4; > 100 µM (inactive) with T47D; 74.3 µM (inactive) in the assay with KM12; > 100 µM (inactive) in the assay with HCT-116; 37.6 µM in the assay on HCT-15.

In the case of `O=C(CCCNc1nc(-c2ccccc2)cs1)c1cccs1`, the GI50 in the assay on UACC-62, in the assay with RPMI-8226, with SF-295, in the assay with SK-MEL-5, with SNB-75 and in the assay on EKVX was > 100 µM (inactive) throughout. Besides, the GI50 in the assay with MDA-N, in the assay on SK-MEL-2, with HT-29, in the assay with UACC-257, in the assay with CAKI-1 and in the assay on UO-31 was > 100 µM (inactive) throughout. In addition, the GI50 in the assay on SF-268 was > 100 µM (inactive); with OVCAR-4 it was > 100 µM (inactive); with T47D, > 100 µM (inactive); in the assay with KM12, > 100 µM (inactive); with HCT-116 it was > 100 µM (inactive); in the assay on HCT-15, over 100 µM.

Take `CCCCCCCCCCCCC1NC(=N)NC2(CCCO2)C1C(=O)OC` (centres undefined): the GI50 in the assay with UACC-62 is 3.89 µM (inactive); with RPMI-8226, 2.61 µM (inactive); in the assay with SF-295, 9.73 µM (inactive); with SK-MEL-5, 5.47 µM (inactive); in the assay on SNB-75 it was 3.61 µM (inactive); in the assay on EKVX, 17.5 µM (inactive). Moreover, the GI50 with SK-MEL-2 is 4.29 µM (inactive); with HT-29 it was 1.92 µM (inactive); with UACC-257, 4.3 µM (inactive); in the assay with CAKI-1 it was 12.8 µM (inactive); in the assay with UO-31, 15.3 µM (inactive); with SF-268, 3.84 µM (inactive). Further, the GI50 is 5.51 µM (inactive) in the assay with OVCAR-4; 1.53 µM (inactive) with HL-60; 6.4 µM (inactive) in the assay on T47D; 1.84 µM (inactive) in the assay with KM12; 2.47 µM (inactive) with HCT-116; 16.7 µM in the assay with HCT-15.

With `CN(C)c1ccc2nc(CC(O)(C(F)(F)F)C(F)(F)F)ccc2c1`, the GI50 in the assay with UACC-62, in the assay on RPMI-8226, in the assay on SF-295, in the assay on SK-MEL-5, with SNB-75 and in the assay with EKVX was > 10 µM (inactive) in each case. The GI50 in the assay with MDA-N, in the assay with SK-MEL-2, in the assay on HT-29, in the assay on UACC-257, in the assay with CAKI-1 and in the assay with UO-31 was > 10 µM (inactive) in each case. In addition, the GI50 in the assay on SF-268 is > 10 µM (inactive); in the assay with OVCAR-4, > 10 µM (inactive); in the assay on T47D, > 10 µM (inactive); with KM12 it was > 10 µM (inactive); with HCT-116, > 10 µM (inactive); with HCT-15 it was over 10 µM.

Regarding `COC(=O)C1=C(C(=O)OC)C(C(=O)c2ccccc2)N2N=C(c3ccc(Cl)cc3)C=CC12` (centres undefined), the GI50 with UACC-62 is 23.9 µM (inactive); in the assay with RPMI-8226, 3.95 µM (inactive); in the assay on SF-295, 44.7 µM (inactive); in the assay on SK-MEL-5 it was 9.23 µM (inactive); with EKVX, 8.81 µM (inactive); in the assay with MDA-N it was 15.3 µM (inactive). The GI50 with SK-MEL-2 is > 100 µM (inactive); in the assay on HT-29, 9.59 µM (inactive); in the assay with UACC-257 it was > 100 µM (inactive); with CAKI-1 it was > 100 µM (inactive); with UO-31, > 100 µM (inactive); with SF-268 it was 6.55 µM (inactive). For the same compound, the GI50 was 19.2 µM (inactive) in the assay on OVCAR-4; 3.85 µM (inactive) with HL-60; > 100 µM (inactive) in the assay on T47D; 13.1 µM (inactive) in the assay on KM12; 3.48 µM (inactive) with HCT-116; 9.62 µM in the assay with HCT-15.

As for `CC1CCC(=O)C(C(=O)CC2CC(=O)N(C)C(=O)C2)C1` (centres undefined), the GI50 in the assay on UACC-62 was > 100 µM (inactive); in the assay on RPMI-8226 it was > 100 µM (inactive); with SF-295 it was > 100 µM (inactive); with SK-MEL-5 it was > 100 µM (inactive); with SNB-75 it was 35.3 µM (inactive); in the assay on EKVX, > 100 µM (inactive). Further, the GI50 in the assay on SK-MEL-2, with HT-29, with UACC-257, in the assay with CAKI-1, with UO-31 and in the assay on SF-268 was > 100 µM (inactive) in each case. Moreover, the GI50 was > 100 µM (inactive) in the assay with OVCAR-4; > 100 µM (inactive) in the assay with HL-60; > 100 µM (inactive) with T47D; > 100 µM (inactive) in the assay with KM12; > 100 µM (inactive) in the assay on HCT-116; over 100 µM in the assay with HCT-15.

Turning to `CC1(C)[C@@H]2C[C@H]1C(Cc1ccc(C[C@H]3c4cc(-c5ccccn5)ncc4[C@H]4C[C@@H]3C4(C)C)cc1)c1cc(-c3ccccn3)ncc12` (some centres undefined), the GI50 in the assay with UACC-62 is 0.67 µM (active); with RPMI-8226, 3.03 µM (inactive); in the assay with SF-295, 1.22 µM (inactive); in the assay on SK-MEL-5, 0.619 µM (active); with SNB-75, 59.8 µM (inactive); in the assay on EKVX, 1.32 µM (inactive). The GI50 is 7.38 µM (inactive) in the assay on SK-MEL-2; 1.44 µM (inactive) in the assay on HT-29; 2.63 µM (inactive) in the assay with UACC-257; 2.45 µM (inactive) in the assay with CAKI-1; 0.931 µM (active) in the assay on UO-31; 0.865 µM (active) in the assay on SF-268. Further, the GI50 with HL-60 was 0.518 µM (active); in the assay with T47D it was 2.52 µM (inactive); with KM12 it was 2.18 µM (inactive); in the assay on HCT-116, 0.75 µM (active); in the assay on HCT-15, 2.9 µM.
